Experiments:
[1] = biological target: T1, recombinant human SHP2 protein (Homo sapiens, UniProt Q06124); assay: SHP2 inhibition assay (pNPP substrate); type: biochemical; conditions: pNPP 4 mM, SHP2 240 nM, 37 °C, 30 min; means ± SD
T1 sequence (Q06124 1-593): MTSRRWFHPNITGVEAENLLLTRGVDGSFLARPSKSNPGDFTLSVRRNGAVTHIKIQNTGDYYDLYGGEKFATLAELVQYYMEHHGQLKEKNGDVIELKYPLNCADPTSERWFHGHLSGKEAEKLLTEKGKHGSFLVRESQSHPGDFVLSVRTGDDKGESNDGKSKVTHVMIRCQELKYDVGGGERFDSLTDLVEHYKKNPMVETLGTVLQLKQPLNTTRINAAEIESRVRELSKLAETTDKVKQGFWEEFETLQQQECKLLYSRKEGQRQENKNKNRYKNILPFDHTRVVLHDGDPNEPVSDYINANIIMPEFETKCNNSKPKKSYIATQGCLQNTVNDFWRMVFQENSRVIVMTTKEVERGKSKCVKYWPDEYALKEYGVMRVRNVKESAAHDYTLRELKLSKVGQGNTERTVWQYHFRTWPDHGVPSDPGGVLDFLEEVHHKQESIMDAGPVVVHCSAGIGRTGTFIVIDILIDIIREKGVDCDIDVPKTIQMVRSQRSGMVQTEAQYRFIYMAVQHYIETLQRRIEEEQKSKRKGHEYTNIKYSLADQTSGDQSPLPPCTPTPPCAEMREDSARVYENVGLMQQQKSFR
Method: pGEX-4T1 SHP2 WT (plasmid #8322) was purchased from Addgene. […] Then, 0.2 mM IPTG (Sangon Biotech, Shanghai, China) was added to induce the expression of protein at 30 °C for 4 h followed by centrifugation and cells collection. Cells were then broken by ultrasound in lysis buffer (20 mM Tris–HCl (pH 8.0), 100 mM KCl, 10% glycerol, 1 mM DTT, 0.5% Triton X-100) on ice. The supernatant was collected by centrifugation at 10,000× g for 15 min at 4 °C. The BeaverBeads GSH (Beaver Biosciences Inc., Guangzhou, China) washed by lysis buffer were incubated with the supernatant for 2 h at 4 °C. […] Then, the experiment was performed in a final volume of 100 μL containing 10 mM Tris–HCl (pH 7.5), 25 mM NaCl, 1 mM EDTA and 4 mM pNPP in a 96-well plate at 37 °C for 30 min. The amount of product p-nitrophenol was determined by the absorbance at 405 nm in a multimode reader (Berthold Technologies GmbH & Co.KG, Bad Wildbad, Baden Württemberg, Germany). The IC50 value was calculated by GraphPad Prism 7.0 software (GraphPad Inc, San Diego, CA, USA).

HCT116 cells xenograft = assay: Anti-tumor activity in vivo, HCT116 xenograft model; design: species or system BALB/c-nude mice; conditions: 13 days
Method: Male BALB/c-nude mice (Jinan Pengyue Experimental Animal Breeding Co., Ltd., Jinan, China), 5 weeks of age, were used. The mice were housed in a specific pathogen-free room with temperature controlled (22 ± 2 °C), humidity (55 ± 10%) and a light/dark cycle of 12 h, providing sterile food and water. The HCT116 cells xenograft model was conducted, and 1 × 10^7 HCT116 cells were subcutaneously injected into the right armpit of mice. The tumor volume of mice was measured every three days to evaluate the tumor growth. When the tumor volume reached about 100 mm^3, the mice were randomly divided into four groups (n = 6), and treated with vehicle (0.5% CMC-Na solution) or 4o (25, 50 mg/kg) by gavage once a day for 13 consecutive days. A total of 25 mg/kg 5-FU was used as a positive control. The body weight of mice was measured every three days. The length (L) and width (W) of tumors were measured by electronic caliper every three days. The volume (V) was calculated as follows: V = (L × W^2)/2. When the tumor volume reached about 1000 mm^3, the tumors were excised. Immunohistochemical analysis were used to evaluate the related protein levels.

SHP2 = conditions: cited from earlier work

Compound | IC50 [1] | other results
CCC(=O)N1N=C(c2ccc(Oc3ccccc3)cc2)CC1c1ccc(O)c(O)c1 (stereo not drawn) [Compound 4c, 1-(5-(3,4-dihydroxyphenyl)-3-(4-phenoxyphenyl)-4,5-dihydro-1H-pyrazol-1-yl)propan-1-one] | 34.2 ± 5.9 µM | 
CC(C)(C)c1ccc(Oc2ccc(C3=NN(C(N)=S)C(c4ccc(O)c(O)c4)C3)cc2)cc1 (stereo not drawn) [Compound 4h, 3-(4-(4-(tert-butyl)phenoxy)phenyl)-5-(3,4-dihydroxyphenyl)-4,5-dihydro-1H-pyrazole-1-carbothioamide] | 8.44 ± 2.03 µM | 
NC(=S)N1N=C(c2ccc(Br)cc2)CC1c1ccc(O)c(O)c1 (stereo not drawn) [Compound 4i, 3-(4-bromophenyl)-5-(3,4-dihydroxyphenyl)-4,5-dihydro-1H-pyrazole-1-carbothioamide] | 20.4 ± 2.45 µM | 
COc1ccc(C2=NN(C3=NC(=O)CS3)C(c3ccc(O)c(O)c3)C2)cc1 (stereo not drawn) [Compound 4j, 2-(5-(3,4-dihydroxyphenyl)-3-(4-methoxyphenyl)-4,5-dihydro-1H-pyrazol-1-yl)thiazol-4(5H)-one] | 11.4 ± 1.56 µM | 
CCOc1ccc(Oc2ccc(C3=NN(C4=NC(=O)CS4)C(c4ccc(O)c(O)c4)C3)cc2)cc1 (stereo not drawn) [Compound 4l, 2-(5-(3,4-dihydroxyphenyl)-3-(4-(4-ethoxyphenoxy)phenyl)-4,5-dihydro-1H-pyrazol-1-yl)thiazol-4(5H)-one] | 4.36 ± 0.65 µM | 
CC(C)(C)c1ccc(Oc2ccc(C3=NN(C4=NC(=O)CS4)C(c4ccc(O)c(O)c4)C3)cc2)cc1 (stereo not drawn) [Compound 4m, 2-(3-(4-(4-(tert-butyl)phenoxy)phenyl)-5-(3,4-dihydroxyphenyl)-4,5-dihydro-1H-pyrazol-1-yl)thiazol-4(5H)-one] | 4.94 ± 0.79 µM | 
O=c1[nH]cc(F)c(=O)[nH]1 [Compound 5-FU, 5-fluorouracil, reference compound] |  | Effect on body weight of tumor-bearing mice (HCT116 cells xenograft; 4o 25, 50 mg/kg or 5-FU 25 mg/kg): showed a decrease; Tumor inhibition rate (HCT116 cells xenograft; 5-FU 25 mg/kg, positive drug): 54.8%
NC(=O)C(c1ccccc1)S(=O)(=O)O (stereo not drawn) [Sulfophenyl acetic amide] |  | IC50 (SHP2): 1.5 µM
Tautomycetin |  | IC50 (SHP2): 2.9 µM

The next lines start with results.

IC50 [1] | Compound | other results
13.3 ± 2.11 µM | CCOc1ccc(Oc2ccc(C3=NN(C=O)C(c4ccc(O)c(O)c4)C3)cc2)cc1 (stereo not drawn) [Compound 4a, 5-(3,4-dihydroxyphenyl)-3-(4-(4-ethoxyphenoxy)phenyl)-4,5-dihydro-1H-pyrazole-1-carbaldehyde] | 
13.7 ± 1.98 µM | CC(C)(C)c1ccc(Oc2ccc(C3=NN(C=O)C(c4ccc(O)c(O)c4)C3)cc2)cc1 (stereo not drawn) [Compound 4b, 3-(4-(4-(tert-butyl)phenoxy)phenyl)-5-(3,4-dihydroxyphenyl)-4,5-dihydro-1H-pyrazole-1-carbaldehyde] | 
9.51 ± 2.01 µM | CCCC(=O)N1N=C(c2ccc(Oc3ccccc3)cc2)CC1c1ccc(O)c(O)c1 (stereo not drawn) [Compound 4d, 1-(5-(3,4-dihydroxyphenyl)-3-(4-phenoxyphenyl)-4,5-dihydro-1H-pyrazol-1-yl)butan-1-one] | 
5.96 ± 0.92 µM | CCOc1ccc(Oc2ccc(C3=NN(C(N)=S)C(c4ccc(O)c(O)c4)C3)cc2)cc1 (stereo not drawn) [Compound 4e, 5-(3,4-dihydroxyphenyl)-3-(4-(4-ethoxyphenoxy)phenyl)-4,5-dihydro-1H-pyrazole-1-carbothioamide] | 
13.2 ± 1.89 µM | COc1ccc(C2=NN(C(N)=S)C(c3ccc(O)c(O)c3)C2)cc1 (stereo not drawn) [Compound 4f, 5-(3,4-dihydroxyphenyl)-3-(4-methoxyphenyl)-4,5-dihydro-1H-pyrazole-1-carbothioamide] | 
5.97 ± 0.88 µM | NC(=S)N1N=C(c2ccc(Oc3ccccc3)cc2)CC1c1ccc(O)c(O)c1 (stereo not drawn) [Compound 4g, 5-(3,4-dihydroxyphenyl)-3-(4-phenoxyphenyl)-4,5-dihydro-1H-pyrazole-1-carbothioamide] | 
4.98 ± 0.77 µM | O=C1CSC(N2N=C(c3ccc(Oc4ccccc4)cc3)CC2c2ccc(O)c(O)c2)=N1 (stereo not drawn) [Compound 4k, 2-(5-(3,4-dihydroxyphenyl)-3-(4-phenoxyphenyl)-4,5-dihydro-1H-pyrazol-1-yl)thiazol-4(5H)-one] | 
18.5 ± 2.32 µM | O=C1CSC(N2N=C(c3ccc(Br)cc3)CC2c2ccc(O)c(O)c2)=N1 (stereo not drawn) [Compound 4n, 2-(3-(4-bromophenyl)-5-(3,4-dihydroxyphenyl)-4,5-dihydro-1H-pyrazol-1-yl)thiazol-4(5H)-one] | 
